Earlier results on 1 compound are cited in patent US12201642B2, “Composition for the treatment of COVID-19” (priority 2020, dated 2025).

One data set concerns HCMV. To be noted: cultures of smooth muscle cells.

Each structure is given as a SMILES string.

For the compound `CC(=O)Oc1ccccc1C(=O)O` [Aspirin, Acetylsalicylic acid], in the data set on influenza A H1N1 virus, the antiviral effectiveness entry is listed as “highly effective”. Besides, the toxic side-effects result in the data set on influenza virus (as anti-influenza agent) was “no toxic side-effects”. Further, in the data set with influenza virus (in vitro and in vivo), the “effect on influenza virus replication” value is given as “efficiently blocks influenza virus replication”. In addition, the “reduction of the yield of HCMV (factor)” value in the data set with HCMV was 2-3.
